{"source": "patent US11576913B2", "about": "(priority 2018, dated 2023)", "key": {"[1]": {"assay_type": "in vivo, human", "conditions": "Compound (1C) tablets administered orally", "description": "The comparators in an abuse potential study are typically controlled substances from the same pharmacologic class as the investigational drug. However, Compound (1C) is a novel drug class for which no controlled substances/drugs of abuse are available for comparison. […] There was no evidence of other effects of interest to abusers, such as perceptual disturbances or stimulation. […] Placebo control was used to establish the frequency and magnitude of changes in clinical endpoints that may occur in the absence of active treatment as well as to minimize subject and investigator bias."}, "[2]": {"tested_on": "subjects suffering from the Insomnia Disorder adult insomnia", "assay_type": "in vivo, human", "method": "Following the evening-time dosing with study drug, subjects underwent eight hours of continuous PSG recording. Next-day residual effects were assessed by the DSST and the KSS evaluation, collected in that order, starting at approximately 30 minutes after “lights-on.” All tests were administered in the clinical unit, beginning 30 minutes after lights-on and periodically thereafter for approximately 16 hours post-lights-off, following completion of PSG recording. Each subject also completed a post-sleep questionnaire once after lights-on so that subjective impressions could be assessed about the “quality” and “quantity” of their sleep. Before the second night dosing in each dosing period, subjects were evaluated for any residual sleepiness. […] Subjects remained in the clinic until residual symptoms were minimized.\nThe well-known DSST is a paper-and-pencil neuropsychological test that explores attention and psychomotor speed and was therefore useful as an indication of next day residual effects, if any. When administered in multiple sessions over time, the DSST provided an objective indication of the change in performance.\nEach subject was asked to match symbols with their corresponding digit as follows. […] The subject filled in as many squares as possible during the allowed 90 second time limit. The score was determined from the number of correct symbols. An untimed 7 blank square practice opportunity was provided before the 90 second time period began. Six different versions of the test were used to avoid learning effects that could occur if only a single version was used.\nThe DSST was administered starting approximately ½ hour after lights-on (i.e., about 9 hours post-dosing) and at about 1, 3, 4, 5, and 7 hours thereafter following completion of PSG recordings after each night of the baseline visit (Visit 2) and after each night of Dosing Periods 1-5.\nThe DSST results shown, other than for the baseline, are the mean results obtained from the DSST scores following all nights of Dosing Periods 1-5 for the indicated dose. The DSST results for the baseline are the mean results obtained following the first and second nights of the baseline visit. Note that for clarity of display purposes, in FIG. 6 many of the test results at each time period, e.g., at approximately ½ hour after lights-on/9 hours post-dosing, were staggered arbitrarily away from the actual time when the test was conducted."}, "[3]": {"assay_type": "in vivo, rat", "conditions": "within 48 hours of oral dosing", "description": "Specifically, liquid scintillation counting (“LSC”) was used for the determination of total radiolabeled Compound (1C) material, i.e., the original or parent compound and its metabolites. […] Using ^14C as a radiolabel for pharmacokinetic studies is a recognized technique and embedding the radiolabel into the ring structure was done to limit migration or exchange of the radiolabel to non-Compound (1C)-related molecules. The specific radioactivity for the lot of [^14C]-Compound (1C) synthesized was 2.50 MBq/mg (67.6 μCi/mg) [3.49 MBq/mg (94.4 μCi/mg) if the material were to be present as the free base form] with a radiochemical purity of greater than 98.5% as determined by HPLC. The synthesized radiolabeled [^14C]-Compound (1C) was stored away from light at a temperature of −80° C. before use.\nFollowing oral administration of [^14C]-Compound (1C) (in an appropriate vehicle, e.g., a methyl cellulose suspension) to the experimental animals, excreta samples were collected over specified time intervals. Urine samples were collected at fixed intervals post dosing. Fecal samples were homogenized and diluted prior to being solubilized. Aliquots of these samples were counted following the addition of liquid scintillation fluid thereto. Detection limits for radioactivity in the excreta samples were set at twice the background count (from blank samples) as determined by LSC. The [^14C]-Compound (1C) was stable for about 4-5 hours in urine at a temperature of about 25° C. and, when kept refrigerated at 4° C., for up to 15 days (rat urine) and 36 days (dog urine). Recovery of [^14C]-Compound (1C) from rat urine was typically from about 91.6 to about 99.1%."}}, "note": "Where two headings read alike, the source gives them in different places."}
{"compound": "O=C(O)c1nc2ccccc2n([C@H]2C[C@H]3CCC[C@@H](C2)N3C2CC3CCCC(C3)C2)c1=O", "note": "(some centres unmarked) [Compound (1C)]", "values": [{"measurement": "Time to maximum concentration", "setting": "[1]", "value": "approximately 1.5 hours"}, {"measurement": "next day residual effects by mean DSST results vs placebo", "setting": "[2]; 0.5 mg, about 9 to about 16 hours post-dosing", "value": "no next day residual effects"}, {"measurement": "next day residual effects by mean DSST results vs placebo", "setting": "[2]; 1.0 mg, about 9 to about 16 hours post-dosing", "value": "no next day residual effects"}, {"measurement": "next day residual effects by mean DSST results vs placebo", "setting": "[2]; 3.0 mg, deviations at about 9, 10, 12, and 13 hours", "value": "minimal next day residual effects"}, {"measurement": "next day residual effects by mean DSST results vs placebo", "setting": "[2]; 6.0 mg, each of the testing times", "value": "some next day residual effects"}, {"measurement": "Average % Elimination, Fecal", "setting": "[3]; Rat (female)", "value": 27.9, "unit": "%"}, {"measurement": "Average % Elimination, Fecal + Urinary", "setting": "[3]; Rat (female)", "value": 94.7, "unit": "%"}, {"measurement": "Average % Elimination, Urinary", "setting": "[3]; Rat (female)", "value": 66.8, "unit": "%"}, {"measurement": "Average % Elimination, Fecal", "setting": "[3]; Rat (male)", "value": 41.6, "unit": "%"}, {"measurement": "Average % Elimination, Fecal + Urinary", "setting": "[3]; Rat (male)", "value": 96.0, "unit": "%"}, {"measurement": "Average % Elimination, Urinary", "setting": "[3]; Rat (male)", "value": 54.4, "unit": "%"}]}
